One series deals with T1, mTOR (Homo sapiens, UniProt P42345).
T1 construct: Dilute TOR fraction 1:14 in “Simple TOR Buffer”
Briefly: mTOR HTR-FRET Assay. The note with it: HTR-FRET screening assay, GST-p70S6 kinase fragment substrate. Format: biochemical. The procedure:
The following is an example of an assay that can be used to determine the mTOR inhibitory activity of a test compound. Reagents are prepared as follows:
“Simple TOR buffer” (used to dilute high glycerol TOR fraction): 10 mM Tris pH 7.4, 100 mM NaCl, 0.1% Tween-20, 1 mM DTT (from 1M stock frozen at −20° C. just prior to use). For convenience a large quantity of “Simple TOR buffer” w/o DTT can be stored at 4° C. It can be brought to room temperature and DTT added just prior to dilution of TOR fraction.
5×KB/5×Mn/5×ATP solution (used to dilute substrate GST-p70S6kin 81 a.a. just prior to use) (40 ml screen quantity shown):
Enzyme solution: Dilute TOR fraction 1:14 in “Simple TOR Buffer”. For current lot that is 640 μg/ml TOR fraction diluted 14× to yield 45.7 μg/ml TOR in buffer (i.e. 7.85 ml TOR pooled fraction+102.1 ml Simple TOR buffer=110 ml 14× diluted TOR fraction). Each Enzyme Lot must be QC'd prior to assay.
Substrate solution: This may be prepared just prior to assay if preferred. Dilute 5.3 mg/ml GST-p70S6kinase fragment stock to 3.5 μg/ml (97 nM) working stock in 5×KB/5×Mn/5×ATP solution (i.e. 26.41 μL (5.3 mg/ml) GST-p70S6+40 ml 5×KB/5×Mn/5×ATP=40 ml 3.5 μg/ml (97 nM)).
Assay Buffer (for dilution of Antibodies used in Antibody Detection Reagent):
Antibody Detection Reagent (this reagent should be made just prior to addition to Assay Plates):
Using PlateTrak program (Screen) or Matrix Pipettor (SAR), 19.5 μL of diluted TOR fraction is added to assay plate in all test, reference or positive control wells. 19.5 μL of “Simple TOR buffer” is added to all negative control wells. If treating multiple plates with the same compounds, can increase volume of enzyme to multiples of 19.5 μL in a tall 384 well polypropylene plate.
Using EP3, 0.5 μl of test, reference or control DMSO is added to each well with mixing. Plates are incubated for 30 minutes at room temperature.
Using PlateTrak program (Screen) or Matrix Pipettor (SAR) 5 μL of 5×KB/5×Mn/5×ATP/5× substrate solution is added to each well of the assay plate to start the reaction. The solutions are mixed well and incubated for 2 hours at room temperature.
Using PlateTrak program (Screen) or Matrix Pipettor (SAR) 5 μL of 60 mM EDTA is added to stop the reaction. The solutions are mixed well and allowed to sit for 15-20 minutes before the next step.
Using PlateTrak program (Screen) or Matrix Pipettor (SAR) 10 μl of Antibody Detection Reagent is added. The solutions are mixes well and incubated for 5 hours to O/N to allow antibodies to form complexes with phosphorylated substrate.
Plates are read on AnalystHT using protocol Multi-Method protocol.

In the next series the target is T2, PKCθ (Homo sapiens, UniProt Q04759).
T2 construct: purchased Invitrogen
T2 sequence (Q04759 whole entry): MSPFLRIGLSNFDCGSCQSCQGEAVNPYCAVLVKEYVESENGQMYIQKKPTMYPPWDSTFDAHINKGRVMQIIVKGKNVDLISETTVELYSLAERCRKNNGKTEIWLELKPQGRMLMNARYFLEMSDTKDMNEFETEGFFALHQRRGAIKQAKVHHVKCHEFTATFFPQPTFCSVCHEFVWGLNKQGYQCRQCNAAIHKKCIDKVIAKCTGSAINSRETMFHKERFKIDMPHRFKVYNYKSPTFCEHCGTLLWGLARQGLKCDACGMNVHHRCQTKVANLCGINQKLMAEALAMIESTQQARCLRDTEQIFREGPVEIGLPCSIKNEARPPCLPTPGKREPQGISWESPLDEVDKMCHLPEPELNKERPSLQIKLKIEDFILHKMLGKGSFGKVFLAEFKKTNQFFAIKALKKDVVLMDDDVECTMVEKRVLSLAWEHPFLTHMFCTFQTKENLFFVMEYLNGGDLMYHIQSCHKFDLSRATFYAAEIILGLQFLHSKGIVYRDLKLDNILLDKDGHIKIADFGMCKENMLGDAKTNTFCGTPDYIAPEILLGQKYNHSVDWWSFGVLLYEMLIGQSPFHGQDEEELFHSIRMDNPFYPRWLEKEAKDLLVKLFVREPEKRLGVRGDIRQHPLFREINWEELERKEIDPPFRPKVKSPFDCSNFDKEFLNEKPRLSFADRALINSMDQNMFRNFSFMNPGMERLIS
As to the kind of experiment: PKCθ IMAP Assay. Format: biochemical. The note with it: IMAP fluorescence polarization screening assay, 35 μM ATP. The procedure: The following is an example of an assay that can be used to determine the PKCθ inhibitory activity of a test compound. Reagents are prepared as follows:
Assay Buffer: 50 mM HEPES (pH 7.6), 10 mM MgCl, 0.1 mM EDTA, 5 mM MBP, 0.01% Triton, 1 mM DTT, 0.05 mg/ml phosphatidyl serine, 0.05 mg/ml diacylglycerol.
The final concentration of PKCθ (Invitrogen) is 0.5 nM. The final concentration of substrate (FAM-AKRRRLSSLRA) (Molecular Devices) is 100 nM. The final concentration of ATP in the reaction is 35 μM. The final concentration of DMSO in the reaction is 2.5%.
Enzyme is kept in 5 μl aliquots and stored at −80° C. prior to use. Test compound is allowed to pre-incubate with enzyme for 45 minutes before the reactions is initiated.
The reaction mixture consists of: 5 μl of test compound in 10% DMSO, 5 μl of 400 nM substrate (FAM-AKRRRLSSLRA), 5 μl of […] PKCθ, and 5 μl of 140 μM ATP (ATP is added to the reaction mixture last to initiate the reaction) per well.
The reaction is allowed to proceed for 60 minutes and is terminated by adding 30 μl per well of 90% Progressive A buffer/10% Progressive B buffer and a 1:400 dilution of binding beeds (Molecular Devices).
The reaction is given a binding incubation time of at least 30 minutes prior to reading the fluorescence polarization signal on an Analyst reader (the following detector settings are used: fluorescein excitation-485 nm, fluorescein emission-530 nm, fluorescein dichroic-505 nm).

Some results are limits rather than exact numbers.

On to `COc1cc(-c2cnc3[nH]c(=O)n(CC4CCOCC4)c3n2)cc(OC)c1OC` [Compound 2, 1-((tetrahydro-2H-pyran-4-yl)methyl)-6-(3,4,5-trimethoxyphenyl)-1H-imidazo[4,5-b]pyrazin-2(3H)-one], for which the IC50 – broadly, the concentration that inhibits the measured activity by half – is 0.1 to 5 µM against mTOR and > 30 µM on PKCθ. The like results for `COc1cccc(Cn2c(=O)[nH]c3ncc(-c4ccc(S(C)(=O)=O)cc4)nc32)c1` [Compound 4, 1-(3-methoxybenzyl)-6-(4-(methylsulfonyl)phenyl)-1H-imidazo[4,5-b]pyrazin-2(3H)-one] were, in that order, 0.1 to 5 µM and > 30 µM.

Turning to `C[C@@H](c1ccccc1)n1c(=O)[nH]c2ncc(-c3cccc4ncccc34)nc21` [Compound 5, (S)-1-(1-phenylethyl)-6-(quinolin-5-yl)-1H-imidazo[4,5-b]pyrazin-2(3H)-one], the values for the IC50 against mTOR and against PKCθ were 5.1 to 10 µM and > 30 µM, respectively. At mTOR, `O=c1[nH]c2ncc(-c3ccc(O)cc3)nc2n1CC1CCOCC1` [Compound 6, 6-(4-hydroxyphenyl)-1-((tetrahydro-2H-pyran-4-yl)methyl)-1H-imidazo[4,5-b]pyrazin-2(3H)-one] had an IC50 of 0.1 to 5 µM. Regarding `C[C@H](c1ccccc1)n1c(=O)[nH]c2ncc(-c3cccc4ncccc34)nc21` [Compound 10, (R)-1-(1-phenylethyl)-6-(quinolin-5-yl)-1H-imidazo[4,5-b]pyrazin-2(3H)-one], the figures for the IC50 at mTOR and at PKCθ were 10.1 to 20 µM and 0.1 to 5 µM, respectively. On to `O=c1[nH]c2ncc(-c3cccc4ncccc34)nc2n1Cc1ccccc1` [Compound 14, 1-benzyl-6-(quinolin-5-yl)-1H-imidazo[4,5-b]pyrazin-2(3H)-one], for which the IC50 is 0.1 to 5 µM at mTOR and > 30 µM against PKCθ. For the molecule `COc1ccc(Cn2c(=O)[nH]c3ncc(-c4cccc5ncccc45)nc32)cc1` [Compound 15, 1-(4-methoxybenzyl)-6-(quinolin-5-yl)-1H-imidazo[4,5-b]pyrazin-2(3H)-one], the IC50 was 0.1 to 5 µM against mTOR and > 30 µM against PKCθ. `C[C@H](c1ccccc1)n1c(=O)[nH]c2cnc(-c3cccc4ncccc34)cc21` [Compound 24, (R)-1-(1-phenylethyl)-6-(quinolin-5-yl)-1H-imidazo[4,5-c]pyridin-2(3H)-one]: the half-maximal inhibitory concentration (IC50) on mTOR and against PKCθ was > 30 µM throughout. Consider `C[C@@H](c1ccccc1)n1c(=O)[nH]c2cnc(-c3cccc4ncccc34)cc21` [Compound 25, (S)-1-(1-phenylethyl)-6-(quinolin-5-yl)-1H-imidazo[4,5-c]pyridin-2(3H)-one], for which the IC50 against mTOR and against PKCθ was > 30 µM throughout. Take `CC(c1ccccc1)n1c(=O)[nH]c2ccc(-c3cccc4ncccc34)nc21` (centres unmarked) [Compound 26, 3-(1-phenylethyl)-5-(quinolin-5-yl)-1H-imidazo[4,5-b]pyridin-2(3H)-one]: the values for the IC50 against mTOR and at PKCθ were > 30 µM and 5.1 to 10 µM, respectively.

Take `C[C@H](c1ccccc1)n1c(=O)[nH]c2ccc(-c3cccc4ncccc34)nc21` [Compound 27, (R)-3-(1-phenylethyl)-5-(quinolin-5-yl)-1H-imidazo[4,5-b]pyridin-2(3H)-one]: the values for the IC50 at mTOR and against PKCθ were > 30 µM and 5.1 to 10 µM, respectively. `O=c1[nH]c2ncc(-c3cccc4ncccc34)nc2n1[C@@H](CO)c1ccccc1` [Compound 40, (R)-1-(2-hydroxy-1-phenylethyl)-6-(quinolin-5-yl)-1H-imidazo[4,5-b]pyrazin-2(3H)-one]: the IC50 against mTOR and against PKCθ was 10.1 to 20 µM in each case. As to `O=c1[nH]c2ncc(-c3cccc4ncccc34)nc2n1[C@H](CO)c1ccccc1` [Compound 41, (S)-1-(2-hydroxy-1-phenylethyl)-6-(quinolin-5-yl)-1H-imidazo[4,5-b]pyrazin-2(3H)-one], the IC50 on mTOR lay in the range of 5.1 to 10 µM; against PKCθ, 0.1 to 5 µM. Take `CC[C@H](c1ccccc1)n1c(=O)[nH]c2ncc(-c3cccc4ncccc34)nc21` [Compound 45, (R)-1-(1-phenylpropyl)-6-(quinolin-5-yl)-1H-imidazo[4,5-b]pyrazin-2(3H)-one]: the results for the IC50 on mTOR and on PKCθ were > 30 µM and 0.1 to 5 µM, respectively. The like results for `COc1cccc(Cn2c(=O)[nH]c3ncc(-c4cccc5ncccc45)nc32)c1` [Compound 47, 1-(3-methoxybenzyl)-6-(quinolin-5-yl)-1H-imidazo[4,5-b]pyrazin-2(3H)-one] were, in that order, 0.1 to 5 µM and > 30 µM. As to `O=c1[nH]c2ncc(-c3cccc4ncccc34)nc2n1CC1CCCC1` [Compound 50, 1-(cyclopentylmethyl)-6-(quinolin-5-yl)-1H-imidazo[4,5-b]pyrazin-2(3H)-one], the IC50 against mTOR lay in the range of 0.1 to 5 µM; against PKCθ, 10.1 to 20 µM. For `CC(c1ccccc1)n1c(=O)[nH]c2ncc(-c3cccc(N)c3)nc21` (centres unmarked) [Compound 80, 6-(3-aminophenyl)-1-(1-phenylethyl)-1H-imidazo[4,5-b]pyrazin-2(3H)-one], the IC50 on mTOR was in the range of 5.1 to 10 µM. For `CC(c1ccccc1)n1c(=O)[nH]c2ncc(-c3cccc(N(C)C)c3)nc21` (centres unmarked) [Compound 81, 6-(3-(dimethylamino)phenyl)-1-(1-phenylethyl)-1H-imidazo[4,5-b]pyrazin-2(3H)-one], on mTOR, the IC50 is > 30 µM. On to `CC(c1ccccc1)n1c(=O)oc2ncc(-c3cccc4ncccc34)nc21` (centres unmarked) [Compound 86, 3-(1-phenylethyl)-5-(quinolin-5-yl)oxazolo[5,4-b]pyrazin-2(3H)-one], for which the IC50 at mTOR is > 30 µM.

For the molecule `O=c1[nH]c2ncc(-c3ccc(O)cc3)nc2n1CC1CCCC1` [Compound 87, 1-(cyclopentylmethyl)-6-(4-hydroxyphenyl)-1H-imidazo[4,5-b]pyrazin-2(3H)-one], the melting point – broadly, the temperature, or range, at which the solid turns liquid – was in the range of 296 to 297 °C. This molecule also returned an IC50 against mTOR of 0.1 to 5 µM. `CC(C)n1c(=O)[nH]c2ncc(-c3ccc(O)cc3)nc21` [Compound 88, 6-(4-hydroxyphenyl)-1-isopropyl-1H-imidazo[4,5-b]pyrazin-2(3H)-one] displayed a melting point of 323 to 324 °C. The same molecule displayed an IC50 against mTOR of 0.1 to 5 µM. As for `CC(C)Cn1c(=O)[nH]c2ncc(-c3ccc(O)cc3)nc21` [Compound 89, 6-(4-hydroxyphenyl)-1-isobutyl-1H-imidazo[4,5-b]pyrazin-2(3H)-one], the melting point was 290 to 291 °C. Further, the IC50 at mTOR lay in the range of 0.1 to 5 µM. Regarding `O=c1[nH]c2ncc(-c3ccc(O)cc3)nc2n1CC1CCCOC1` (centres unmarked) [Compound 90, 6-(4-hydroxyphenyl)-1-((tetrahydro-2H-pyran-3-yl)methyl)-1H-imidazo[4,5-b]pyrazin-2(3H)-one], the melting point was 271 to 272 °C. This molecule showed an IC50 against mTOR of 0.1 to 5 µM. As to `O=c1[nH]c2ncc(-c3ccc(O)cc3)nc2n1CC1CCCCC1` [Compound 91, 1-(cyclohexylmethyl)-6-(4-hydroxyphenyl)-1H-imidazo[4,5-b]pyrazin-2(3H)-one], the melting point was 302 to 303 °C. On mTOR, this molecule returned an IC50 of 0.1 to 5 µM.

The values above are taken from patent publication US7981893B2, “Heteroaryl compounds, compositions thereof, and methods of treatment therewith” (Signal Pharmaceuticals, LLC, priority 2006, dated 2011).
